From US20250042894A1, “PROTEIN TYROSINE PHOSPHATASE INHIBITORS AND METHODS OF USE THEREOF” (Calico Life Sciences LLC, priority 2021, published 2025) come the findings set out here.

In experiment [1] the target is T1, His tagged PTPN2 (TC45) protein (Homo sapiens, UniProt P17706).
T1 construct: His; made in house
T1 sequence (P17706 1-387 isoform P17706-2): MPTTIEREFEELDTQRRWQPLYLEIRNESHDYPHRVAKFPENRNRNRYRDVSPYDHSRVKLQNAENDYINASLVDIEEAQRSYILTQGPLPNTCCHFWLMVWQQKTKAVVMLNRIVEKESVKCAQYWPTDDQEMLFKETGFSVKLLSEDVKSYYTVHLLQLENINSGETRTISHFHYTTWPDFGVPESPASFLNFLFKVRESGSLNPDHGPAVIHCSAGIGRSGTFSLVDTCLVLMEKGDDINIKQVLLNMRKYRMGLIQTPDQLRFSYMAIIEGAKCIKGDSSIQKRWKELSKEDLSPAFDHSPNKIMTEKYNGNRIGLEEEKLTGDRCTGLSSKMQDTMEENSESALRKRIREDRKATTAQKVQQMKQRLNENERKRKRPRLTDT
The experiment in a line: Mobility Shift Assay (MSA) for PTPN2 inhibitors. Format: biochemical. The note with it: for Thiochromane x-fold>potency biochemical: PTPN2 MSA IC50 of chromane comparator over thiochromane. On the procedure: Example 43: Mobility Shift Assay (MSA) Used to Determine Potency of PTPN2 Inhibitors
Compound activity was determined using in house His tagged PTPN2 (TC45) protein (SEQ ID NO: 1) in an in vitro enzymatic reaction. The enzymatic assay used to determine activity was a mobility shift assay using a LabChip EZ Reader by Caliper Life Sciences. The enzymatic reaction was carried out in assay buffer (50 mM HEPES pH 7.5, 1 mM EGTA, 10 mM EDTA, 0.01% Tween® 20, and 2 mM DTT). The compounds were dispensed on a white 384 well ProxiPlate™ (PerkinElmer Catalog #6008289) plate using the Labcyte Echo at varying concentrations (12 point, 1:3 dilution). The enzyme (at 0.5 nM) was incubated with compound for 10 minutes at room temperature. Thereafter, the substrate (phosphorylated insulin receptor probe sequence: ((OG488)-(NH—CH2—CH2—O—CH2—CH2—O—CH2—CO)-T-R-D-I—(PY)-E-T-D-Y—Y—R—K—K—NH2) (SEQ ID NO: 2) was added at 2 μM to the plates and incubated for another 10 minutes at room temperature. Finally, a quench solution (water and 4-bromo-3-(2-oxo-2-propoxyethoxy)-5-(3-{[1-(phenylmethanesulfonyl)piperidin-4-yl]amino}phenyl)thiophene-2-carboxylic acid) was added to the plates, which were then run on the EZ Reader (excitation 488 nm, emission 530 nm) to measure % conversion (the amount of phosphorylated substrate which was de-phosphorylated by PTPN2). […] The % inhibition was then used to calculate the IC50 values.

Experiment [2] has as its target T2, His tagged full-length PTPN1 protein (Homo sapiens, UniProt P18031).
T2 construct: His; made in house
T2 sequence (P18031 1-435): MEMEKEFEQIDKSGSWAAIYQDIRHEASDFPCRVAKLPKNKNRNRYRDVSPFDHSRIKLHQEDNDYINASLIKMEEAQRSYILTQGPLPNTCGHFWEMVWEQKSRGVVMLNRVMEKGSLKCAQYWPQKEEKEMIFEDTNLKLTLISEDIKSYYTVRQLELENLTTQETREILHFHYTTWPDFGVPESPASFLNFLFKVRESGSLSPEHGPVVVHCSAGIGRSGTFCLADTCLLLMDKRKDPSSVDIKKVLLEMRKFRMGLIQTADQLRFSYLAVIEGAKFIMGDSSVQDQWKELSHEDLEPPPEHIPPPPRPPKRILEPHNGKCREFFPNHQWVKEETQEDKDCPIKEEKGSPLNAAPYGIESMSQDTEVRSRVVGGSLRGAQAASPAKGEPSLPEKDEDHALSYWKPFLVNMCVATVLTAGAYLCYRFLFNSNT
The experiment is described as follows: Mobility Shift Assay (MSA) for PTPN1 inhibitors. Format: biochemical. The note with it: enzyme 0.5 nM, substrate 2 μM, 10 minutes preincubation at room temperature. On the procedure: Example 44: Mobility Shift Assay (MSA) Used to Determine Potency of PTPN1 Inhibitors
Compound activity was determined using in house His tagged full-length PTPN1 protein (SEQ ID NO: 3) in an in vitro enzymatic reaction. The enzymatic assay used to determine activity is a mobility shift assay using a LabChip EZ Reader by Caliper Life Sciences. The enzymatic reaction was carried out in assay buffer (50 mM HEPES pH 7.5, 1 mM EGTA, 10 mM EDTA, 0.010% Tween® 20, and 2 mM DTT). The compounds were dispensed on a white 384 well ProxiPlate™ (PerkinElmer Cat #6008289) plate using a Labcyte Echo® liquid handler at varying concentrations (12 point, 1:3 dilution). The enzyme (at 0.5 nM) was incubated with compound for 10 minutes at room temperature. Thereafter, the substrate (phosphorylated insulin receptor probe sequence: ((OG488)-(NH—CH2—CH2—O—CH2—CH2—O—CH2—CO)-T-R-D-I—(PY)-E-T-D-Y—Y—R—K—K—NH2) (SEQ ID NO: 2) was added at 2 μM to the plates and incubated for another 10 minutes at room temperature. Finally, a quench solution (water and 4-bromo-3-(2-oxo-2-propoxyethoxy)-5-(3-{[1-(phenylmethanesulfonyl)piperidin-4-yl]amino}phenyl)thiophene-2-carboxylic acid) was added to the plates, which were then run on the EZ Reader (excitation 488 nm, emission 530 nm) to measure % conversion (the amount of phosphorylated substrate which was de-phosphorylated by PTPN1). […] The % inhibition was then used to calculate the IC50 values.

The subject of experiment [3] is IFNγ-induced STAT1 phosphorylation (pSTAT1) in B16F10 cells. The experiment in a line: B16F10 Phospho-STAT1 HTRF proximal pharmacodynamic (PD) assay. Particulars: for EC50: B16-F10; for Thiochromane x-fold>potency cellular: pSTAT1 EC50 of chromane comparator over thiochromane. It is filed as cell-based, murine. On the procedure:
Example 45: B16F10 (Murine Melanoma Cells) Phospho-STAT1 HTRF Proximal Pharmacodynamic (PD) Assay
B16F10 cells were grown and maintained in high glucose DMEM (Gibco, Catalog #11965-092, Dun Laoghaire Co Dublin) supplemented with 10% fetal bovine serum (Gibco, Catalog #10082-139, Dun Laoghaire Co Dublin). The cells were pelleted and resuspended in high glucose DMEM without phenol red (Gibco, Catalog #11054-020, Dun Laoghaire Co Dublin), supplemented with 10% fetal bovine serum and plated in a 384 well Corning plate (product #3765, Corning, NY) at 11,000 cells per well in a volume of 20 μL. The cells were dosed with the compounds of interest using an Echo Liquid Handler (Beckman Coulter, Brea, CA) at 50 μM top dose with 3-fold dilutions down to 0.002679 μM for a 10-point dose response. The plate was incubated for 3 hours at 37° C. and subsequently treated with recombinant mouse IFNγ (R&D Systems, Catalog #485-MI, Minneapolis, MN; 100 nM final concentration) for 10 minutes at 37° C. to induce STAT1 phosphorylation followed by 3.3 μM staurosporine treatment for 1 hour at 37° C. to terminate phosphorylation. Media was then aspirated and 20 μL of 1× lysis buffer/blocking reagent (Cisbio Phospho-STAT1 kit, part #63ADK026PEH, Bedford, MA) was added. The plate was placed on a plate shaker for 30 minutes at room temperature, sealed, and stored at −80° C. until needed. To thaw, the plate was placed on shaker at room temperature until completely thawed while the antibody master mix was made (1:40 Phospho-STAT1 Eu Cryptate antibody, 1:40 Phospho-STAT1 d2 antibody, with the detection buffer; Cisbio Phospho-STAT1 kit, part #63ADK026PEH, Bedford, MA). The antibody master mix was then dispensed at 4 μL per well into a 384 ProxiPlate Plus (PerkinElmer, part #6008289, Waltham, MA) and 16 μL of lysate was added from the Corning plate to the Proxiplate using a VIAFLO 384 (INTEGRA). The plate was incubated for 3 hours at room temperature and read on an EnVision® (Perkin Elmer) plate reader with laser excitation at 335 nm and emission at 665 nm. Dotmatics Studies (Bishop's Stortford, UK) was utilized to generate all dose-response curves and calculate EC50s and are shown in Table 2.

Where [4] appears, read: enzyme 0.5 nM, substrate 2 μM, 10 minutes preincubation at room temperature.
[5] abbreviates: Table 2, 3 hours compound, then mouse IFNγ 100 nM 10 minutes, top dose 50 μM, read-out: B16F10 IFNγ Induced pSTAT1 EC50.
The mark [6] stands for this setting: Mus musculus, Table 3, B16F10 cells, IFNγ-induced, thiochromanes (X = S) and chromane comparators (X = O), read-out: pSTAT1 EC50.
Where [7] appears, read: Table 3, thiochromanes (X = S) and chromane comparators (X = O).

Read-outs that look alike come from different tables or passages of the source. Where only a bound is given, the exact number is not on record here.

On to `O=C1CN(c2c(O)cc3c(c2F)C[C@H](NCC2C4CCCC42)CS3)S(=O)(=O)N1` (mixture of isomers) [Compound 138, 5-[(3S)-3-({[(1RS,5SR)-bicyclo[3.1.0]hexan-6-yl]methyl}amino)-5-fluoro-7-hydroxy-3,4-dihydro-2H-1-benzothiopyran-6-yl]-1λ^6,2,5-thiadiazolidine-1,1,3-trione], for which the “Thiochromane x-fold>potency biochemical” value in experiment [1] (Table 3) amounted to 2.0. The IC50 in experiment [1] (setting [4]) and in experiment [2] was 10 to 100 nM in each case. In addition, the half-maximal effective concentration (EC50) in experiment [3] (setting [5]) and in experiment [3] (setting [6]) was 1480 nM in each case. For the same molecule, the “Thiochromane x-fold>potency cellular” value in experiment [3] (Table 3) is above 33.8.
For the molecule `O=C1CN(c2c(O)cc3c(c2F)C[C@H](NCCCC(F)F)CS3)S(=O)(=O)N1` [Compound 100, 5-{(3S)-3-[(4,4-difluorobutyl)amino]-5-fluoro-7-hydroxy-3,4-dihydro-2H-1-benzothiopyran-6-yl}-1λ^6,2,5-thiadiazolidine-1,1,3-trione], the “Thiochromane x-fold>potency biochemical” value in experiment [1] (Table 3) came out at 3.4. For the same molecule, the IC50 in experiment [1] (setting [7]) is 2 nM; in experiment [1] (setting [4]) it was below 10 nM; in experiment [2], below 10 nM. The EC50 in experiment [3] (setting [5]) was 164 nM.
On to `CC(C)(C)OC(=O)N[C@@H]1CSc2cc(O)c(N3CC(=O)NS3(=O)=O)c(F)c2C1` [Compound 101, tert-butyl [(3S)-5-fluoro-7-hydroxy-6-(1,1,4-trioxo-1λ^6,2,5-thiadiazolidin-2-yl)-3,4-dihydro-2H-1-benzothiopyran-3-yl]carbamate], for which, in experiment [2], the IC50 is above 100 nM.
For `N[C@@H]1CSc2cc(O)c(N3CC(=O)NS3(=O)=O)c(F)c2C1` [Compound 102, 5-[(3S)-3-amino-5-fluoro-7-hydroxy-3,4-dihydro-2H-1-benzothiopyran-6-yl]-1λ^6,2,5-thiadiazolidine-1,1,3-trione], the “Thiochromane x-fold>potency biochemical” value in experiment [1] (Table 3) is given as 1.7. In addition, the IC50 in experiment [1] (setting [7]) was 31 nM; in experiment [1] (setting [4]), 10 to 100 nM; in experiment [2], above 100 nM.
Take `CC(C)CCN[C@@H]1CSc2cc(O)c(N3CC(=O)NS3(=O)=O)c(F)c2C1` [Compound 103, 5-{(3S)-5-fluoro-7-hydroxy-3-[(3-methylbutyl)amino]-3,4-dihydro-2H-1-benzothiopyran-6-yl}-1λ^6,2,5-thiadiazolidine-1,1,3-trione]: the “Thiochromane x-fold>potency biochemical” value in experiment [1] (Table 3) is listed as 11.9. In addition, the IC50 in experiment [1] (setting [7]) was 1 nM; in experiment [1] (setting [4]) it was below 10 nM; in experiment [2], below 10 nM. The EC50 in experiment [3] (setting [5]) and in experiment [3] (setting [6]) was 528 nM each time. The “Thiochromane x-fold>potency cellular” value in experiment [3] (Table 3) was determined as 13.2.
On to `N[C@@H]1COc2cc(O)c(N3CC(=O)NS3(=O)=O)c(F)c2C1` [Compound C-2, reference compound], for which the IC50 in experiment [1] (setting [7]) turned out to be 52 nM. Also, the EC50 in experiment [3] (setting [6]) stood at 5750 nM.
Regarding `CC(C)CCN[C@@H]1COc2cc(O)c(N3CC(=O)NS3(=O)=O)c(F)c2C1` [Compound C-3, reference compound], in experiment [1] (setting [7]), the IC50 worked out at 15 nM. Moreover, in experiment [3] (setting [6]), the EC50 amounted to 6960 nM.
Turning to `O=C1CN(c2c(O)cc3c(c2F)CC(NCCC2CCOCC2)CO3)S(=O)(=O)N1` (stereo not drawn) [Compound C-4, reference compound], the EC50 in experiment [3] (setting [6]) worked out at 32200 nM.
For the molecule `O=C1CN(c2c(O)cc3c(c2F)CC(NCCC2CCOC2)CO3)S(=O)(=O)N1` (stereo not drawn) [Compound C-5, reference compound], the EC50 in experiment [3] (setting [6]) worked out at 22600 nM.
`O=C1CN(c2c(O)cc3c(c2F)CC(NCC2(CF)CC2)CO3)S(=O)(=O)N1` (stereo not drawn) [Compound C-6, reference compound]: the EC50 in experiment [3] (setting [6]) was above 50000 nM.
`O=C1CN(c2c(O)cc3c(c2F)CC(NCC2CC(c4ccccc4)C2)CO3)S(=O)(=O)N1` (stereo not drawn) [Compound C-7, reference compound]: the EC50 in experiment [3] (setting [6]) was above 50000 nM.
`O=C1CN(c2c(O)cc3c(c2F)CC(NCCCc2ccccc2)CO3)S(=O)(=O)N1` (stereo not drawn) [Compound C-8, reference compound]: in experiment [3] (setting [6]), the EC50 was above 50000 nM.
On to `O=C1CN(c2c(O)cc3c(c2F)CC(NCC2C4CCCC42)CO3)S(=O)(=O)N1` (stereo not drawn) [Compound C-10, reference compound], for which the concentration for a half-maximal effect (EC50) in experiment [3] (setting [6]) was above 50000 nM.
Turning to `O=C1CN(c2c(O)cc3c(c2F)CC(NCC2CCC(C(F)(F)F)CC2)CO3)S(=O)(=O)N1` (stereo not drawn) [Compound C-11, reference compound], in experiment [3] (setting [6]), the EC50 was above 50000 nM.
Still for that read-out and setting: as for `CC1=C(CCNC2COc3cc(O)c(N4CC(=O)NS4(=O)=O)c(F)c3C2)C(C)(C)CCC1` (stereo not drawn) [Compound C-12, reference compound], the figure is above 50000 nM; as for `CC(C)(C)OC(=O)N1CCC(CNC2COc3cc(O)c(N4CC(=O)NS4(=O)=O)c(F)c3C2)CC1` (stereo not drawn) [Compound C-13, reference compound], above 50000 nM.
